Source: ChEMBL document CHEMBL1932917, “4,5-dihydropyridazin-3-one derivatives as histamine H₃ receptor inverse agonists” (Bioorg Med Chem Lett, 2012)
pEC50, pIC50, pKi: −log10 of the molar value. One block for each compound: values may come before it.

Columns and labels:
Histamine H3 receptor [1] = target: T1, Histamine H3 receptor (Homo sapiens, UniProt Q9Y5N1); test: Displacement of [3H]NAMH from human histamine H3 receptor expressed in CHO cells; format: cell-based
Histamine H3 receptor [2] = target: Histamine H3 receptor (Rattus norvegicus, UniProt Q9QYN8); test: Displacement of [3H]NAMH from rat histamine H3 receptor expressed in CHO cells; format: cell-based
Histamine H3 receptor [3] = target: T1, Histamine H3 receptor; test: Antagonist activity at human histamine H3 receptor by [35S]GTPgammaS binding assay; format: functional
Cytochrome P450 2C9 = Cytochrome P450 2C9 (Homo sapiens, UniProt P11712); test: Inhibition of CYP2C9; format: ADME
[4] = Solubility of the compound in water at pH 2; format: physicochemical
[5] = Ratio of drug level in brain to plasma in rat at 10 mg/kg, ip after 6 hrs; format: ADME, organism-based; parameters: dose 10 mg/kg, route intraperitoneal; conditions: for Kp at 6 h: brain/plasma, read-out: BPR
[6] = Half life in human liver microsomes; format: ADME, Microsome
[7] = Half life in rat liver microsomes; format: ADME, Microsome
[8] = (§1) Half life in rat at 1 mg/kg, iv; format: ADME, organism-based; parameters: dose 1 mg/kg, route intravenous; conditions: in vivo
[9] = Drug uptake in rat brain at 5 mg/kg, po after 6 hrs; format: ADME, organism-based; parameters: dose 5 mg/kg, route oral; conditions: read-out: Drug uptake
[10] = (§2) Cmax in rat at 5 mg/kg, po; format: ADME, organism-based; parameters: dose 5 mg/kg, route oral; conditions: in vivo
[11] = Half life in dog liver microsomes; format: ADME, Canis lupus familiaris, Microsome
Cytochrome P450 3A4 = Cytochrome P450 3A4 (Homo sapiens, UniProt P08684); test: Inhibition of CYP3A4; format: ADME
[12] = Clearance in rat at 1 mg/kg, iv; format: ADME, organism-based; parameters: dose 1 mg/kg, route intravenous; conditions: in vivo
[13] = Apparent permeability of the compound in human Caco2 cells; format: ADME, cell-based; conditions: Caco-2
[14] = (§3) Volume of distribution in rat at 1 mg/kg, iv; format: ADME, organism-based; parameters: dose 1 mg/kg, route intravenous; conditions: in vivo
[15] = (§4) Oral bioavailability in rat at 5 mg/kg; format: ADME, organism-based; conditions: in vivo
[16] = (§5) AUC in rat at 5 mg/kg, po; format: ADME, organism-based, Plasma; parameters: dose 5 mg/kg, route oral; conditions: plasma
Rattus norvegicus [17] = test: Inhibition of RAMH-induced dipsogenia in po dosed rat; format: functional
Cytochrome P450 2D6 = Cytochrome P450 2D6 (Homo sapiens, UniProt P10635); test: Inhibition of CYP2D6; format: ADME
Histamine H3 receptor [18] = target: T1, Histamine H3 receptor; test: Inverse agonist activity at human histamine H3 receptor by [35S]GTPgammaS binding assay; format: functional
Cytochrome P450 1A2 = target: T2, Cytochrome P450 1A2 (Homo sapiens, UniProt P05177); test: Inhibition of CYP1A2; format: ADME
T2 sequence (P05177 whole entry): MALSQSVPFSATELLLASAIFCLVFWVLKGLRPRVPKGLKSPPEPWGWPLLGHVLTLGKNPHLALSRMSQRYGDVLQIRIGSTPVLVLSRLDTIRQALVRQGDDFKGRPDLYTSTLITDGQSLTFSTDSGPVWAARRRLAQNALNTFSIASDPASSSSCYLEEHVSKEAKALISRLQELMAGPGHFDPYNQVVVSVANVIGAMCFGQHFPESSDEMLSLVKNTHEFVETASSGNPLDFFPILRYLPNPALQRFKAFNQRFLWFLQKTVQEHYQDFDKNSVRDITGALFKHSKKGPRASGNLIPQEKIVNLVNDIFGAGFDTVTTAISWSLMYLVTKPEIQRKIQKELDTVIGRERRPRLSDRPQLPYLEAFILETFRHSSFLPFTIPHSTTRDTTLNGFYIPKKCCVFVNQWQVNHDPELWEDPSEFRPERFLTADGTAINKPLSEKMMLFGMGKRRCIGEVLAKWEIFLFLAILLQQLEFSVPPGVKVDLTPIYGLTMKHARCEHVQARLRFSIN

[19] = Solubility of the compound in water at pH 7.4; format: physicochemical
[20] = target: T3, Muscarinic acetylcholine receptor M2 (Homo sapiens) (UniProt P08172); test: Inhibition of muscarinic M2 receptor at 10 uM
T3 sequence (whole entry): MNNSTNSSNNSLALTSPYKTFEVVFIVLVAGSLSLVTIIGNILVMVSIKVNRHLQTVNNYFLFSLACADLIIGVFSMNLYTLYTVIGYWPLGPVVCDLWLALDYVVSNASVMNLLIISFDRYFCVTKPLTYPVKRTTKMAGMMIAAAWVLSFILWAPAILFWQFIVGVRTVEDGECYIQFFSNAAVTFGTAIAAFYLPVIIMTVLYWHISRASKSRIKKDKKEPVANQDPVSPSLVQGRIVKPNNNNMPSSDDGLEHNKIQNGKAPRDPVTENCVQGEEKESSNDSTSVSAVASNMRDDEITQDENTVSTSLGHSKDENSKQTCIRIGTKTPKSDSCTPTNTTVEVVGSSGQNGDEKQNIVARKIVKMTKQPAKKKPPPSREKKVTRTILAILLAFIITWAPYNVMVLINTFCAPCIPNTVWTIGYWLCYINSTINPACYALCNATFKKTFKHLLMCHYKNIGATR

Cytochrome P450 2C19 = Cytochrome P450 2C19 (Homo sapiens, UniProt P33261); test: Inhibition of CYP2C19; format: ADME
[21] = Half life in monkey liver microsomes; format: ADME, Macaca mulatta, Microsome; conditions: rhesus monkey
[22] = Half life in mouse liver microsomes; format: ADME, Microsome
Rattus norvegicus [23] = test: as §1; format: ADME, organism-based; parameters: dose 1 mg/kg, route intravenous; conditions: in vivo
Rattus norvegicus [24] = test: as §2; format: ADME, organism-based; parameters: dose 5 mg/kg, route oral; conditions: in vivo
Rattus norvegicus [25] = test: as §3; format: ADME, organism-based; parameters: dose 1 mg/kg, route intravenous; conditions: in vivo
Rattus norvegicus [26] = test: as §4; format: ADME, organism-based; conditions: in vivo
Rattus norvegicus [27] = test: as §5; format: ADME, organism-based, Plasma; parameters: dose 5 mg/kg, route oral; conditions: in vivo

Cytochrome P450 3A4, sequence (P08684 whole entry): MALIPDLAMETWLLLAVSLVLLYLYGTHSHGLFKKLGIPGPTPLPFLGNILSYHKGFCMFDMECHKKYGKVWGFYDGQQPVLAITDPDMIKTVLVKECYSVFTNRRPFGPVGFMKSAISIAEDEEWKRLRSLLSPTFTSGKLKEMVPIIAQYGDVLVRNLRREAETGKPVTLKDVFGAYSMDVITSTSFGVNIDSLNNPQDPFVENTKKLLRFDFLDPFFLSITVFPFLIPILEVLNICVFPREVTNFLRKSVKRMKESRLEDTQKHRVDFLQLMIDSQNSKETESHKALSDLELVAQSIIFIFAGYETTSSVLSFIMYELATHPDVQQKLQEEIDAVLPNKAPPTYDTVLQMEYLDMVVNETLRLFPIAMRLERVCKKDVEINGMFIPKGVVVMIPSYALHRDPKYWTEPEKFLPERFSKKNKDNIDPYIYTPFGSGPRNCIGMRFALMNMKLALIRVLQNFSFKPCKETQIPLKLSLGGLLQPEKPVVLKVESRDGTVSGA
Histamine H3 receptor (Rattus norvegicus, UniProt Q9QYN8), sequence (Q9QYN8 whole entry): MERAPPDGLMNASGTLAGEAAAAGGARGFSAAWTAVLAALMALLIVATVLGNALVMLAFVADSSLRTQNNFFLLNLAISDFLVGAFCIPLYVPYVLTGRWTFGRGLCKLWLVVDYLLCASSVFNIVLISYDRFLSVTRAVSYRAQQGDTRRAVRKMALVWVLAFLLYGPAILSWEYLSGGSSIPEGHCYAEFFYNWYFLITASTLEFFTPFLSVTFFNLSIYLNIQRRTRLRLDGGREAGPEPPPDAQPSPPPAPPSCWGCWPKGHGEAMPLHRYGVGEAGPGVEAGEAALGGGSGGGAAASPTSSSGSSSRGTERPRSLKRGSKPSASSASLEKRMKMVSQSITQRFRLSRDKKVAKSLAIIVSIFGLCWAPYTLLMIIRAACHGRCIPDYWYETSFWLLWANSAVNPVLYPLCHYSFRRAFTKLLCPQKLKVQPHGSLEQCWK
Cytochrome P450 2D6, sequence (P10635 whole entry): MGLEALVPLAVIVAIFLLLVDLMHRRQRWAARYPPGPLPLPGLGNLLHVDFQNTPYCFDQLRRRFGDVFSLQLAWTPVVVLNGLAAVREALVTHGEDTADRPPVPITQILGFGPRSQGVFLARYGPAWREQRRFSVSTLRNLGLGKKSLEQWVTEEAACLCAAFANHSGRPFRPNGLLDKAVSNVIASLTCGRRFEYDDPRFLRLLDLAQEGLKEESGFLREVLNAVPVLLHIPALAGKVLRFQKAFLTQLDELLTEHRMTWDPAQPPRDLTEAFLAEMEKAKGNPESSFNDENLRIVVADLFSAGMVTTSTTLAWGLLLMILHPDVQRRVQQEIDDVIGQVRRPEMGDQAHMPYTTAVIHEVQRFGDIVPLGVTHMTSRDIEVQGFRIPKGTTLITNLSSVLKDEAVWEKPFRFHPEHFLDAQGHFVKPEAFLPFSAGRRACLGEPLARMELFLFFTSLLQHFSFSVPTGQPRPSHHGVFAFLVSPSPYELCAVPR
Cytochrome P450 2C19, sequence (P33261 whole entry): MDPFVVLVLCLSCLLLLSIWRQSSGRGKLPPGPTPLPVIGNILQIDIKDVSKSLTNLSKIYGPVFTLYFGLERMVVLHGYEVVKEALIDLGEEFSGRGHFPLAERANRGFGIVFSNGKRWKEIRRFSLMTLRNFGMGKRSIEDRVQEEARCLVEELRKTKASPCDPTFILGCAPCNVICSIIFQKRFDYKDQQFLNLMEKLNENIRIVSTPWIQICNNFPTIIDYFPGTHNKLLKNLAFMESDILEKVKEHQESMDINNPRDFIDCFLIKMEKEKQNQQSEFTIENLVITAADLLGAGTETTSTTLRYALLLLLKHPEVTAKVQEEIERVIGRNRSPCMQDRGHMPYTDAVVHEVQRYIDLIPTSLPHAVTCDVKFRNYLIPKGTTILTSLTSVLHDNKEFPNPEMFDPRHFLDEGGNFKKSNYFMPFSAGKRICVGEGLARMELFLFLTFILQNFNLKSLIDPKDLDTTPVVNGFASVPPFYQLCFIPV
Cytochrome P450 2C9, sequence (P11712 whole entry): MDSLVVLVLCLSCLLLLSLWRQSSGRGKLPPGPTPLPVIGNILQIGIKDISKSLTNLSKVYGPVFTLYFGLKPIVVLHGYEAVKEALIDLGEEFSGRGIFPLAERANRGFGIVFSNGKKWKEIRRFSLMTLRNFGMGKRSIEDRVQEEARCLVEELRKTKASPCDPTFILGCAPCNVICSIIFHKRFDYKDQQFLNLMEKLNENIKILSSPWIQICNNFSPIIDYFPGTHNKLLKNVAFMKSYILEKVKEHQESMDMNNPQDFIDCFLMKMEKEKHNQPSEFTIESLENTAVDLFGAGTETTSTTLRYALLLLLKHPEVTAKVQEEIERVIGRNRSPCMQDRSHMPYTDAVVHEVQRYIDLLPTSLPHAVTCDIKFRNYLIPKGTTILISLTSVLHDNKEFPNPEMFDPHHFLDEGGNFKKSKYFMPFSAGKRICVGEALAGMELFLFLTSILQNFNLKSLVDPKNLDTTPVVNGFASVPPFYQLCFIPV
T1 sequence (Q9Y5N1 whole entry): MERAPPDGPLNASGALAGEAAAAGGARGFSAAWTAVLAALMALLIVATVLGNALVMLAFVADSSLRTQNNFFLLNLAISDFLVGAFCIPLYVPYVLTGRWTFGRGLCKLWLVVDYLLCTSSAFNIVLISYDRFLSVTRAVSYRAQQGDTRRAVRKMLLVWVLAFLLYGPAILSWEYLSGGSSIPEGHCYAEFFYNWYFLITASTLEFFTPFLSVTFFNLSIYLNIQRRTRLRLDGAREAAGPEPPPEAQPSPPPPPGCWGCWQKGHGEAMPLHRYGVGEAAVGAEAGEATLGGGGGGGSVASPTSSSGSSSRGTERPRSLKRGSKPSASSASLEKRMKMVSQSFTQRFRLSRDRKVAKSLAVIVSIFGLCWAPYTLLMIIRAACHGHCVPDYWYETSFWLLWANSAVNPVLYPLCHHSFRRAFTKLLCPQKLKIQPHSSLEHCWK

Compound: O=C1CCC(c2ccc(OCCCN3CCCCC3)cc2)=NN1CC(F)(F)F
- pKi (Histamine H3 receptor [1]): 7.42
- pKi (Histamine H3 receptor [2]): 7.21

Compound: CC1CC(=O)NN=C1c1ccc(OCCCN2CCCC2)cc1 (racemic)
- pKi (Histamine H3 receptor [1]): 7.08
- pKi (Histamine H3 receptor [2]): 7.07

Compound: CC1CC(=O)NN=C1c1ccc(OCCCN2CCC[C@H]2C)cc1 (stereo in doubt; 19a) [listing 1 of 2 here]
- Kb (Histamine H3 receptor [3]): 0.68 nM

Compound: C[C@H]1CCCN1CCCOc1ccc(C2=NNC(=O)CC2)cc1
- pKi (Histamine H3 receptor [1]): 7.43
- pKi (Histamine H3 receptor [2]): 6.94

Compound: CC1CC(=O)NN=C1c1ccc(OCCCN2CCCCC2)cc1 (racemic)
- pKi (Histamine H3 receptor [1]): 7.68
- pKi (Histamine H3 receptor [2]): 7.55

Second part, led by results:

- pKi (Histamine H3 receptor [1]): 8.00
- pKi (Histamine H3 receptor [2]): 7.80
Compound: C[C@@H]1CCCN1CCCOc1ccc(C2=NN(c3ccccc3)C(=O)CC2)cc1

- pKi (Histamine H3 receptor [1]): 8.72
- pKi (Histamine H3 receptor [2]): 8.40
Compound: CC1CC(c2ccc(OCCCN3CCC[C@H]3C)cc2)=NNC1=O (mixture of isomers)

- pIC50 (Cytochrome P450 2C9): < 4.52
- solubility [4]: > 2000 µg/mL
- Kp at 6 h [5]: 3.1
- half-life [6]: > 40 min
- half-life [7]: > 40 min
- half-life [8]: 66 min
- concentration at 6 h [9]: 2200 nM
- Cmax [10]: 376 ng/mL
- half-life [11]: > 40 min
- pKi (Histamine H3 receptor [1]): 8.49
- pIC50 (Cytochrome P450 3A4): < 4.96
- clearance [12]: 8.5 mL/min/kg
- Papp [13]: 11.4 ×10⁻⁶ cm/s
- Vd [14]: 0.8 L/kg
- bioavailability [15]: 19%
- AUC [16]: 1830 ng·h/mL
- pIC50 (Cytochrome P450 2D6): < 4.96
- pKi (Histamine H3 receptor [2]): 8.06
- pEC50 (Histamine H3 receptor [18]): 9.15
- pIC50 (Cytochrome P450 1A2): < 4.52
- solubility [19]: > 2000 µg/mL
- inhibition [20]: 60%
- pIC50 (Cytochrome P450 2C19): < 4.52
- half-life [21]: > 40 min
- half-life [22]: > 40 min
Compound: C[C@@H]1CCCN1CCCOc1ccc(C2=NNC(=O)CC2)cc1
- ED50 (Rattus norvegicus [17]): 0.06 mg/kg
- inhibition (Rattus norvegicus [17]): Dose-dependent effect

- pIC50 (Cytochrome P450 2C9): < 4.52
- BPR ([5]; brain, 6 h): 1.9
- t1/2 (Rattus norvegicus [23]): 90 min
- Cmax (Rattus norvegicus [24]): 274 ng/mL
- pKi (Histamine H3 receptor [1]): 8.33
- pIC50 (Cytochrome P450 3A4): < 4.52
- Vd (Rattus norvegicus [25]): 3.4 L/kg
- F (Rattus norvegicus [26]): 52%
- AUC (Rattus norvegicus [27]): 1327 ng·h/mL
- pIC50 (Cytochrome P450 2D6): < 4.52
- pKi (Histamine H3 receptor [2]): 7.70
- pEC50 (Histamine H3 receptor [18]): 8.85
- pIC50 (Cytochrome P450 1A2): < 4.52
- pIC50 (Cytochrome P450 2C19): < 4.52
Compound: CC1CC(=O)NN=C1c1ccc(OCCCN2CCC[C@H]2C)cc1 (single isomer, unassigned; isomer 2)

- pIC50 (Cytochrome P450 2C9): < 4.52
- Kp at 6 h [5]: 1.8
- half-life [6]: > 40 min
- half-life [7]: > 40 min
- half-life [8]: 108 min
- Cmax [10]: 301 ng/mL
- half-life [11]: > 40 min
- pKi (Histamine H3 receptor [1]): 8.17
- pIC50 (Cytochrome P450 3A4): < 4.52
- Vd [14]: 3.5 L/kg
- bioavailability [15]: 40%
- AUC [16]: 1360 ng·h/mL
- pIC50 (Cytochrome P450 2D6): < 4.52
- pKi (Histamine H3 receptor [2]): 7.54
- pEC50 (Histamine H3 receptor [18]): 8.89
- pIC50 (Cytochrome P450 1A2): < 4.52
- pIC50 (Cytochrome P450 2C19): < 4.52
- half-life [21]: > 40 min
- half-life [22]: > 40 min
Compound: CC1CC(=O)NN=C1c1ccc(OCCCN2CCC[C@H]2C)cc1 (stereo in doubt; 19a) [listing 2 of 2 here]

- pKi (Histamine H3 receptor [1]): 8.30
- pKi (Histamine H3 receptor [2]): 7.80
Compound: C[C@@H]1CCCN1CCCOc1ccc(C2=NN(C)C(=O)CC2)cc1
